Assay results published in patent US5874432A, “Saccharin derivatives useful as proteolytic enzyme inhibitors and compositions and method of use thereof” (priority 1997, dated 1999).
Where two headings read alike, the source gives them in different places.

Biological target: T1, human leukocyte elastase (Homo sapiens, UniProt P08246)
T1 sequence (P08246 30-267): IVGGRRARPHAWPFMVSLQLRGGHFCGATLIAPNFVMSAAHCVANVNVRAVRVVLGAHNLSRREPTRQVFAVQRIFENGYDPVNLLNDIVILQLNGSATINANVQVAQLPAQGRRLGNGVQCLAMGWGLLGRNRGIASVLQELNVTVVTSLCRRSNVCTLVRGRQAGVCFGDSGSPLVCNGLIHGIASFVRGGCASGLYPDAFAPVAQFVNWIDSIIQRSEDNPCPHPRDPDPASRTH
Assay: elastase inhibition using human leukocyte elastase (kon and Ki*)
Assay type: biochemical
Conditions: for Ki: Ki* = koff/kon; for kon: read-out: Elastase 10^-3 × kon

[1] = rate of inactivation of enzyme, value is 10^-3 × kon

Experimental: Thus, instead of measuring a Ki, a Ki * is calculated which is defined as the ratio of the koff /kon, the rate of reactivation of the enzyme to the rate of inactivation of the enzyme. The values of koff and kon are measured and Ki * is then calculated.
The rate of inactivation, kon, of enzymatic activity was determined for the compounds tested by measuring the enzyme activity of an aliquot of the respective enzyme as a function of time after addition of the test compound. […] The rate of inactivation is then equal to [formula] where [I] is the concentration of the inhibiting compound.
The reactivation constant, koff, is similarly determined and the inhibition constant, Ki *, is then calculated as

O=C1c2ccccc2S(=O)(=O)N1CSc1nc2ccc([N+](=O)[O-])cc2s1 [Example 30BD]
Ki (read-out: Elastase Ki *): 8 nM | kon [1]: 11700 M⁻¹ s⁻¹

CSc1nn(CN2C(=O)c3ccccc3S2(=O)=O)c(=S)s1 [Example 30AD]
Ki (read-out: Elastase Ki *): 11.6 nM | kon [1]: 7000 M⁻¹ s⁻¹

O=C1c2ccccc2S(=O)(=O)N1CF [Example 27, 2-fluoromethylsaccharin]
Ki (read-out: Elastase Ki *): 13 nM | kon [1]: 7500 M⁻¹ s⁻¹

O=C1c2ccccc2S(=O)(=O)N1Cn1nnn(-c2cccnc2)c1=S [Example 30R]
Ki (read-out: Elastase Ki *): 36 nM | kon [1]: 2300 M⁻¹ s⁻¹

O=C1c2ccccc2S(=O)(=O)N1CSc1nnnn1C1CCCCC1 [Example 9, 2-(1-cyclohexyl-1H-tetrazol-5-ylthiomethyl)saccharin]
kon [1]: 2500 M⁻¹ s⁻¹

O=C(O)c1ccc(-n2nnnc2SCN2C(=O)c3ccccc3S2(=O)=O)cc1 [Example 30D]
Ki (read-out: Elastase Ki *): 85 nM | kon [1]: 800 M⁻¹ s⁻¹

CC(C)c1cccc2c1C(=O)N(CSc1nnnn1C)S2(=O)=O [Example 30AN]
Ki (read-out: Elastase Ki *): 30 nM | kon [1]: 19000 M⁻¹ s⁻¹

CCc1cccc2c1C(=O)N(CCl)S2(=O)=O [Example 28]
Ki (read-out: Elastase Ki *): 2.5 nM | Elastase 10^-3 × kon [1]: 50.7 M^-1 sec^-1

O=C(CC(c1ccccc1)c1ccccc1)Nc1ccc2c(c1)C(=O)N(CSc1nnnn1-c1ccccc1)S2(=O)=O [Example 16, 5-(3,3-diphenylpropionamido)-2-(1-phenyl-1H-tetrazol-5-ylthiomethyl)saccharin]
Ki (read-out: Elastase Ki *): 2600 nM

COC(=O)c1cc(C(=O)OC)cc(-n2nnnc2SCN2C(=O)c3ccccc3S2(=O)=O)c1 [Example 30E]
Ki (read-out: Elastase Ki *): 12.7 nM | kon [1]: 7300 M⁻¹ s⁻¹

COc1cccc2c1C(=O)N(CCl)S2(=O)=O [Example 22A, 2-chloromethyl-4-methoxysaccharin]
Ki (read-out: Elastase Ki *): 6 nM | kon [1]: 12400 M⁻¹ s⁻¹

CCc1cccc2c1C(=O)N(CSc1nnnn1CC(=O)N(C)C)S2(=O)=O [Example 30AV]
Ki (read-out: Elastase Ki *): 15 nM | kon [1]: 7600 M⁻¹ s⁻¹

O=C1c2ccccc2S(=O)(=O)N1COc1ccc([N+](=O)[O-])cc1 [Example 15, 2-(4-nitrophenoxymethyl)saccharin]
Ki (read-out: Elastase Ki *): 69 nM | kon [1]: 3200 M⁻¹ s⁻¹

COC(=O)C(Sc1nnnn1-c1ccccc1)N1C(=O)c2ccccc2S1(=O)=O (stereo not shown) [Example 17, methyl 2-(1-phenyl-1H-tetrazol-5-ylthio)-2-(2-saccharinyl)acetate]
Ki (read-out: Elastase Ki *): 270 nM | kon [1]: 2900 M⁻¹ s⁻¹

O=C1c2ccccc2S(=O)(=O)N1CSc1nnnn1CCN1CCOCC1 [Example 30BG]
Ki (read-out: Elastase Ki *): 50 nM | kon [1]: 1700 M⁻¹ s⁻¹

CN(C)CCSc1nnc(SCN2C(=O)c3ccccc3S2(=O)=O)s1 [Example 33B, 2-(5-[2-(N,N-dimethylamino)-ethylthio]-1,3,4-thiadiazol-2-ylthiomethyl)saccharin]
Ki (read-out: Elastase Ki *): 18 nM | kon [1]: 4000 M⁻¹ s⁻¹

Cc1nnc(SCN2C(=O)c3c(C(C)C)cccc3S2(=O)=O)s1 [Example 30AM]
Ki (read-out: Elastase Ki *): 4.5 nM | kon [1]: 12300 M⁻¹ s⁻¹

CCOC(=O)Cn1nnnc1SCN1C(=O)c2ccccc2S1(=O)=O [Example 30AP]
Ki (read-out: Elastase Ki *): 51 nM | kon [1]: 1300 M⁻¹ s⁻¹

CCOc1cccc2c1C(=O)N(CSc1nnnn1-c1ccccc1)S2(=O)=O [Example 30AT]
kon [1]: 45300 M⁻¹ s⁻¹

O=C1c2c(-c3ccccc3)cccc2S(=O)(=O)N1CSc1nnnn1-c1ccccc1 [Example 30BC]
kon [1]: 5800 M⁻¹ s⁻¹

O=C1c2c(Br)cccc2S(=O)(=O)N1CCl [Example 21, 2-chloromethyl-4-bromosaccharin]
Ki (read-out: Elastase Ki *): 0.5 nM | kon [1]: 950000 M⁻¹ s⁻¹

O=C1c2ccccc2S(=O)(=O)N1CSc1nnc(SCCN2CCOCC2)s1 [Example 33, 2-(5-[2-(4-morpholinyl)ethylthio]-1,3,4-thiadiazol-2-ylthiomethyl)saccharin]
Ki (read-out: Elastase Ki *): 12 nM | kon: 3600 M⁻¹ s⁻¹

O=C1C=Cc2ccc(OCN3C(=O)c4ccccc4S3(=O)=O)c3cccc1c23 [Example 30G]
Ki (read-out: Elastase Ki *): 7.7 nM | kon [1]: 9300 M⁻¹ s⁻¹

O=C1c2ccccc2S(=O)(=O)N1CSc1nnnn1-c1cccnc1 [Example 30Q]
Ki (read-out: Elastase Ki *): 70.4 nM | kon [1]: 1380 M⁻¹ s⁻¹

CCC(CC)c1cccc2c1C(=O)N(CCl)S2(=O)=O [Example 22C, 2-chloromethyl-4-(3-pentyl) saccharin]
Ki (read-out: Elastase Ki *): 0.4 nM | kon [1]: 105000 M⁻¹ s⁻¹

O=C1c2cccc(Cl)c2S(=O)(=O)N1CCl [Example 22D]
Ki (read-out: Elastase Ki *): 1.3 nM | kon [1]: 75800 M⁻¹ s⁻¹

CCc1cccc2c1C(=O)N(CSc1nnnn1CCN1CCOCC1)S2(=O)=O [Example 30J]
Ki (read-out: Elastase Ki *): 10 nM | kon [1]: 14000 M⁻¹ s⁻¹

CC(C)c1cccc2c1C(=O)N(CCl)S2(=O)=O [Example 22E, 2-chloromethyl-4-isopropylsaccharin]
Ki (read-out: Elastase Ki *): 91 nM | kon [1]: 4700 M⁻¹ s⁻¹

CC(C)c1cccc2c1C(=O)N(CN1C(=O)CNS1(=O)=O)S2(=O)=O [Example 42D]
Ki (human leukocyte elastase, read-out: Ki * values, elastase inhibition (Examples 41-57)): 1000 nM

O=C1c2ccccc2S(=O)(=O)N1CSc1nnc(S)s1 [Example 30AH]
Ki (read-out: Elastase Ki *): 60 nM | kon [1]: 1100 M⁻¹ s⁻¹

CCOc1ccc(OCCOCCOC)c2c1C(=O)N(CSc1nnnn1-c1ccccc1)S2(=O)=O [Example 30L]
Ki (read-out: Elastase Ki *): 7.6 nM | kon [1]: 6500 M⁻¹ s⁻¹

O=C1c2c(Cl)cccc2S(=O)(=O)N1CSc1nnnn1-c1ccccc1 [Example 4, 4-chloro-2-(1-phenyl-1H-tetrazol-5-ylthiomethyl)saccharin]
Ki (read-out: Elastase Ki *): 12 nM | kon [1]: 20000 M⁻¹ s⁻¹

CCOc1cccc2c1C(=O)N(CCl)S2(=O)=O [Example 22H]
Ki (read-out: Elastase Ki *): 1.2 nM | kon [1]: 25000 M⁻¹ s⁻¹

Cn1nnc(SCN2C(=O)c3ccccc3S2(=O)=O)n1 [Example 30X]
Ki (read-out: Elastase Ki *): 143 nM | kon [1]: 550 M⁻¹ s⁻¹

COC(=O)c1cn(-c2ccccc2)c(SCN2C(=O)c3ccccc3S2(=O)=O)n1 [Example 30AR]
Ki (read-out: Elastase Ki *): 153 nM | kon [1]: 300 M⁻¹ s⁻¹

O=C1c2ccccc2S(=O)(=O)N1/C=C/CSc1nnnn1-c1ccccc1 [Example 38, trans-2-[3-(1-phenyl-1H-tetrazol-5-ylthio)-1-propenyl]saccharin]
Ki (read-out: Elastase Ki *): 2 nM | kon [1]: 43000 M⁻¹ s⁻¹

CC(C)c1cccc2c1C(=O)N(CSc1nnnn1CCN1CCOCC1)S2(=O)=O [Example 30BI]
Ki (read-out: Elastase Ki *): 0.5 nM | kon [1]: 39000 M⁻¹ s⁻¹

O=C1c2ccccc2S(=O)(=O)N1CSc1nc(-c2ccccc2)ns1 [Example 30AF]
Ki (read-out: Elastase Ki *): 12.5 nM | Elastase 10^-3 × kon [1]: 4.2 M^-1 sec^-1

Cc1ccc(C)c2c1C(=O)N(CCl)S2(=O)=O [Example 29, 2-chloromethyl-4,7-dimethylsaccharin]
Ki (read-out: Elastase Ki *): 120 nM | kon [1]: 1100 M⁻¹ s⁻¹

COCCOCCOc1ccc(OC)c2c1S(=O)(=O)N(CSc1nnnn1-c1ccccc1)C2=O [Example 30M]
Ki (read-out: Elastase Ki *): 10 nM | kon [1]: 1000 M⁻¹ s⁻¹

Cn1cnnc1SCN1C(=O)c2ccccc2S1(=O)=O [Example 30AC]
kon [1]: 190 M⁻¹ s⁻¹

O=C1c2ccccc2S(=O)(=O)N1CS(=O)(=O)c1c(Cl)cccc1Cl [Example 32A, 2-(2,6-dichlorophenylsulfonylmethyl)saccharin]
Ki (read-out: Elastase Ki *): 145 nM | kon [1]: 600 M⁻¹ s⁻¹

CN(C)C(=O)Cn1nnnc1SCN1C(=O)c2ccccc2S1(=O)=O [Example 30AS]
Ki (read-out: Elastase Ki *): 40 nM | kon [1]: 1700 M⁻¹ s⁻¹

Cn1nnc(=S)n1CN1C(=O)c2ccccc2S1(=O)=O [Example 30W]
Ki (read-out: Elastase Ki *): 80 nM | Elastase 10^-3 × kon [1]: 1.5 M^-1 sec^-1

O=C1c2ccccc2C(=O)N1CN1C(=O)c2ccccc2S1(=O)=O [Example 30BF]
Ki (read-out: Elastase Ki *): 40000 nM | kon [1]: 20 M⁻¹ s⁻¹

Cc1nnc(SCN2C(=O)c3ccccc3S2(=O)=O)s1 [Example 30AB]
Ki (read-out: Elastase Ki *): 23 nM | kon [1]: 2800 M⁻¹ s⁻¹

CC(C)c1cccc2c1C(=O)N(Cn1nnn(-c3ccccc3)c1=S)S2(=O)=O [Example 30AJ]
Ki (read-out: Elastase Ki *): 15.5 nM | kon [1]: 1800 M⁻¹ s⁻¹
